Like-named read-outs stand apart in the source and are kept apart here.
Experiments:
[1] = in vitro; settings: human, Caco-2, pH 7.4
Description: Caco-2 Permeability Assay Protocol
(§3) Caco-2 cells were maintained in DMEM in an atmosphere of 5% CO2. For transport experiments 5×10^5 cells/well of were seeded on polycarbonate filter inserts and allowed to grow and differentiate for 21±4 days before the cell monolayers were used for experiments. Apparent permeability coefficients were determined for A→B and B→A directions with and without the presence of elacridar as a transporter inhibitor. Up to three test items and reference compounds were dissolved in Hank's balanced salt solution at pH 7.4 to yield a final concentration of 10 μM.
(§4) The assays were performed in HBSS containing 25 mM HEPES (pH 7.4) at 37° C. Prior to the study, the monolayers were washed in prewarmed HBSS. At the start of the experiments prewarmed HBSS containing the test items was added to the donor side of the monolayer and HBSS without test items was added to the receiver side. Aliquots of the receiver side were taken over the 2 h incubation period; aliquots of the donor side were taken at 0 hand 2 h. Aliquots were diluted with an equal volume of methanol/water with 0.1% formic acid containing the internal standard. The mixture was analyzed by LC-MS/MS. The apparent permeability coefficients (Papp) were calculated using the formula: Papp=(dCrec/dt)/(A×C0,donor)]×106 with dCrev/dt being the change in concentration in the receiver compartment with time, C0,donor the concentration in the donor compartment at time 0, and A the area of the compartment with the cells.

[2] = test system: Caco-2 cells; settings: human, Caco-2, 2 h, 10 μM, pH 7.4
Description: Caco-2 Permeability Assay Protocol
as §3, §4

[3] = Microsome stability assay, mouse liver microsomes; assay type: in vitro ADME; settings: pH 7.4, 1 μM test compound, NADPH 1 mM, 37° C., 0-40 mins, read-out: MLM t1/2
Description: (§1) Microsome Stability Assay Protocol
(§2) Human liver microsomes (Corning #452117 lot 38291) or Mouse liver microsomes (Corning #452701, lot #6328004) were separately combined at a final concentration of […] with KxPO4 pH 7.4 (100 mM), MgCl2 (10 mM), and test compound (1 μM) and pre-incubated (10 min, 37° C.). Next, NADPH (1 mM) was added to begin reactions (total volume 100 μL). At various time points (0, 10, 20, and 40 mins), reactions were quenched with Clem stop solution (100 μL, 625 ng/mL) (Cyprotex) in Acetonitrile. Samples were centrifuged at 4000 g for 20 mins, diluted (75 μL into 75 μL 0.1% formic acid in water), and analyzed by LC-MS/MS.

[4] = test system: TNF-α production by BV2 cells or PBMC; assay: Cellular assay to measure TNF-α inhibition (LPS-stimulated, ELISA); assay type: cell-based, murine (BV2) or human (PBMC); settings: BV2 cells or PBMC (not specified), LPS 100 ng/ml over 24 hours, relative to DMSO vehicle; compound concentration not stated
Excerpt: Oxidative metabolism exerts an anti-inflammatory effect on myeloid cell phenotype (O'Neill L A, Front Immunol. 2014) and Ppargc1a can promote this energy metabolic pathway (Spiegelman BM, Novartis Found Symp. 2007). Thus, pharmacological activation of Ppargc1a would be expected to inhibit the inflammatory response of myeloid cells. This phenomenon can be measured in cultures by a TNF-α inhibition assay.
Cellular Assay Protocol to Measure TNF-α Inhibition
The murine myeloid cell line BV2 or human peripheral blood mononuclear cells (PBMC) are cultured in RPMI 1640 media (Cat #11875119, Gibco) supplemented with 10% fetal bovine serum and 1% L-glutamine 1% penicillin. These cells are then stimulated with 100 ng/ml of lipopolysaccharide (LPS, O111:B34, Cat # L2630, Sigma) over 24 hours. LPS stimulation results in the secretion of the inflammatory cytokine TNF-α by BV2 cells or PBMC, which can be quantified by ELISA in culture supernatant samples per manufacturer's protocol (Cat #558273 for BV2 and Cat #558299 for PBMC, BD Biosciences). To determine whether exampl compounds 1-78 inhibit TNF-α production by BV2 cells or PBMC, the cells were cultured in the presence of the compounds at different concentrations, and fold reduction in TNF-α production relative to TNF-α production by the same cells cultured in the presence of dimethylsulfoxide (as vehicle control) was determined.

[5] = Microsome stability assay, human liver microsomes; assay type: in vitro ADME; settings: pH 7.4, 1 μM test compound, NADPH 1 mM, 37° C., 0-40 mins, read-out: HLM t1/2
Description: as §1, §2

[6] = Pharmacokinetic study (mouse), levels of API after prodrug dosing; assay type: in vivo; settings: mice, 10 mg/kg p.o., 1 h, 2 h, 4 h; for brain levels of API (example 1 compound): brain at 0.5 h, LCMS (FIG. 2); for liver levels of API (example 1 compound): liver at 0.5 h, LCMS (FIG. 3); for plasma levels of API (example 1 compound): plasma at 0.5 h, LCMS (FIG. 1)
Description: Pharmacokinetic studies (mouse) were performed on the example 1, 6-P, 8-P, and 11-P compounds of the present invention. The example 1, 6-P, 8-P, and 11-P compounds were dosed in mice at 10 mg/kg p.o. (n=2). Plasma, brain, and liver were harvested at 0.5 h, 1 h, 2 h, and 4 h. The samples were analyzed by LCMS to determine levels of the example 1 compound, i.e., the active pharmaceutical ingredient (API) for prodrug examples 6-P, 8-P, and 11-P.

[7] = test system: Caco-2 cells; assay: Caco-2 permeability assay; settings: 10 μM, HBSS pH 7.4, 37° C., 2 h; for Caco2 A → B: without elacridar; for Caco2 A → B w/ elacridar: with elacridar as transporter inhibitor
Description: Caco-2 Permeability Assay Protocol
as §3, §4

[8] = Caco-2 permeability assay; settings: human, Caco-2, pH 7.4, with elacridar (concentration not stated)

Row | SMILES | Papp A→B at 2 h, 10 μM [1] [×10⁻⁶ cm/s] | Caco2 B → A [2] [nm/s] | half-life at 1 μM [3] [min] | TNF α Inhibition [4] | half-life at 1 μM [5] [min] | brain levels of API (example 1 compound) [6] | liver levels of API (example 1 compound) [6] | plasma levels of API (example 1 compound) [6] | Caco2 B → A [7] [nm/s] | Caco2 A → B [7] [nm/s] | Papp A→B at 2 h, 10 μM [8] [×10⁻⁶ cm/s] | Caco2 A → B w/ elacridar [7]
1 | CC(C)(C)c1ccc(-c2nc3ccccc3[nH]2)cc1 [Example 1, 2-(4-(tert-Butyl)phenyl)-1H-benzo[d]imidazole] | 0.659 | 31.5 | 16.7 | A (A = >80% inh.) | 14 |  |  |  |  |  |  | 
2 | CC(C)(C)c1ccc(-c2nc3ccccc3n2COC(=O)CCC(=O)O)cc1 [Example 6-P, 4-((2-(4-(tert-Butyl)phenyl)-1H-benzo[d]imidazol-1-yl)methoxy)-4-oxobutanoic acid] |  |  |  |  |  | measurable amounts | measurable amounts | measurable amounts |  |  |  | 
3 | CC(C)(C)c1ccc(-c2nc3ccccc3n2COC(=O)c2ccc(CN)cc2)cc1.Cl [Example 8-P, (4-(((2-(4-(tert-butyl)phenyl)-1H-benzo[d]imidazol-1-yl)methoxy)carbonyl)-phenyl)methylammonium hydrochloride] |  |  |  |  |  | measurable amounts | measurable amounts | measurable amounts |  |  |  | 
4 | CC(C)(C)c1ccc(-c2nc3ccccc3n2COP(=O)([O-])[O-])cc1.[Na+].[Na+] [Example 11-P, Disodium ((2-(4-(tert-butyl)phenyl)-1H-benzo[d]imidazol-1-yl)methyl) phosphate] |  |  |  |  |  | measurable amounts | measurable amounts | measurable amounts |  |  |  | 
5 | CC(C)(C)c1ccc(-c2nc3c(C(F)(F)F)cccc3[nH]2)cc1 [Example 56, 2-(4-tert-Butylphenyl)-4-(trifluoromethyl)-1H-benzo[d]imidazole] |  |  | 23.2 | A (A = >80% inh.) | 103 |  |  |  | 1.73 | 0.748 | 0.0849 | 
6 | CC(C)(C)c1ccc(-c2nc3c(F)cc(F)cc3[nH]2)cc1 [Example 57, 2-(4-tert-Butylphenyl)-4,6-difluoro-1H-benzo[d]imidazole] |  |  | 46.7 | A (A = >80% inh.) | 99.2 |  |  |  | 8.42 | 11.1 | 0.13 | 
7 | CC(C)(C)c1cccc(-c2nc3ccccc3[nH]2)c1 [Example 58, 2-(3-tert-Butylphenyl)-1H-benzo[d]imidazole] |  |  | 4.7 | A (A = >80% inh.) | 6.9 |  |  |  | 30.9 | 21 | 0.86 | 
8 | [2H]c1c([2H])c([2H])c2[nH]c(-c3ccc(C(C)(C)C)cc3)nc2c1[2H] [Example 60, 2-(4-tert-Butylphenyl)-4,5,6,7-tetradeuterio-1H-benzo[d]imidazole] |  |  | 19.8 | A (A = >80% inh.) | 14.3 |  |  |  | 40.7 | 15.8 | 0.916 | 
9 | [2H]c1cc([2H])c2nc(-c3ccc(C(C)(C)C)cc3)[nH]c2c1 [Example 61, 2-(4-tert-Butylphenyl)-4,6-dideuterio-1H-benzo[d]imidazole] |  |  | 23.8 | A (A = >80% inh.) | 13.6 |  |  |  |  | 15.5 | 1.06 | 
10 | CC(C)(C)c1ccc(-c2nc3c(F)c(F)c(F)c(F)c3[nH]2)cc1 [Example 63, 2-(4-tert-Butylphenyl)-4,5,6,7-tetrafluoro-1H-benzo[d]imidazole] |  |  | 132 | A (A = >80% inh.) | 59.8 |  |  |  | 1.31 |  | 0.0336 | 0.005 nm/s
11 | CC(C)(C)c1ccc(-c2nc3c(F)c(F)c(F)cc3[nH]2)cc1 [Example 64, 2-(4-tert-Butylphenyl)-4,5,6-trifluoro-1H-benzo[d]imidazole] |  |  | 83.1 | A (A = >80% inh.) | 112 |  |  |  | 2.54 |  | 0.00126 | 0.792, nm/s
12 | Nc1ccc(-c2nc3ccccc3[nH]2)cc1 [Example 76, 2-(4-Aminophenyl)-1H-benzo[d]imidazole] |  |  | 8.3 | A (A = >80% inh.) | 25.4 |  |  |  |  | 47.8 | 3.11 | 
13 | CC(C)(C)c1cccc(-c2nc3c(F)cc(F)cc3[nH]2)c1 [Example 77, 2-(3-tert-Butylphenyl)-4,6-difluoro-1H-benzo[d]imidazole] |  |  | 10.5 | A (A = >80% inh.) | 31.3 |  |  |  |  | 13.3 | 0.0634 | 

Reference: patent US11111217B2, “2-arylbenzimidazoles as Ppargc1a activators for treating neurodegenerative diseases” (The Board of Trustees of the Leland Stanford Junior …, priority 2018, dated 2021)
